Calls of active or inactive are those of the source.
Legend:
[1] = target: T1, Corticotropin-releasing factor receptor 2/Corticotropin-releasing factor-binding protein (Homo sapiens, UniProt P24387+Q13324); test: Dose Response confirmation of uHTS hits for small molecule antagonists of the CRF-binding protein and CRF-R2 receptor complex.; type: functional; conditions: read-out: IC50_Mean
T1 sequence (Q13324 whole entry): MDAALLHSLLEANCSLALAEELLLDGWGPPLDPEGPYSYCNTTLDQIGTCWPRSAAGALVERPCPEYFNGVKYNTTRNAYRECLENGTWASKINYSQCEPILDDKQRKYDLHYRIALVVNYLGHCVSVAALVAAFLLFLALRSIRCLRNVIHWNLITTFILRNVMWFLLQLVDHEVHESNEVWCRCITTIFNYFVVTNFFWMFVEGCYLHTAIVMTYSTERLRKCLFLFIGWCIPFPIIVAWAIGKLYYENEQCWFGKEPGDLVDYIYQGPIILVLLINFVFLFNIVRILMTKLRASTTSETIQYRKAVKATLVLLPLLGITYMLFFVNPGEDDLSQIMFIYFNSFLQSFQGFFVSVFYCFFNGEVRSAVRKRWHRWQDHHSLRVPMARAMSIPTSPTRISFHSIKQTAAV
T1 sequence (P24387 whole entry): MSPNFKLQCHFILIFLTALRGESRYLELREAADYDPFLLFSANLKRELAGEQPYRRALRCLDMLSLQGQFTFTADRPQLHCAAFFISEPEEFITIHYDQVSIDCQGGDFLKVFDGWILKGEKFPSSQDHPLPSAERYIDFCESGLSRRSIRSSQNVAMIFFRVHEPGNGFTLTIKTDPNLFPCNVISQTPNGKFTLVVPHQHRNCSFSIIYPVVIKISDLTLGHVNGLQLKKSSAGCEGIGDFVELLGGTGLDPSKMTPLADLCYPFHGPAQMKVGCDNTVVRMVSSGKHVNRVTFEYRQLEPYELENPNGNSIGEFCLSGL

[2] = target: T1, Corticotropin-releasing factor receptor 2/Corticotropin-releasing factor-binding protein; test: activators of CRF receptor 2 with binding protein – uHTS hits, confirmation (AID 602473); type: functional; conditions: read-out: EC50_Mean
[3] = target: T2, Rac GTPase-activating protein 1 (Homo sapiens, UniProt Q9H0H5); test: blockers of MgcRacGAP-driven Rac1 GTP hydrolysis – biochemical, ADP Hunter fluorescence, primary and confirmatory, confirmation (AID 624330); type: functional
T2 sequence (Q9H0H5 whole entry): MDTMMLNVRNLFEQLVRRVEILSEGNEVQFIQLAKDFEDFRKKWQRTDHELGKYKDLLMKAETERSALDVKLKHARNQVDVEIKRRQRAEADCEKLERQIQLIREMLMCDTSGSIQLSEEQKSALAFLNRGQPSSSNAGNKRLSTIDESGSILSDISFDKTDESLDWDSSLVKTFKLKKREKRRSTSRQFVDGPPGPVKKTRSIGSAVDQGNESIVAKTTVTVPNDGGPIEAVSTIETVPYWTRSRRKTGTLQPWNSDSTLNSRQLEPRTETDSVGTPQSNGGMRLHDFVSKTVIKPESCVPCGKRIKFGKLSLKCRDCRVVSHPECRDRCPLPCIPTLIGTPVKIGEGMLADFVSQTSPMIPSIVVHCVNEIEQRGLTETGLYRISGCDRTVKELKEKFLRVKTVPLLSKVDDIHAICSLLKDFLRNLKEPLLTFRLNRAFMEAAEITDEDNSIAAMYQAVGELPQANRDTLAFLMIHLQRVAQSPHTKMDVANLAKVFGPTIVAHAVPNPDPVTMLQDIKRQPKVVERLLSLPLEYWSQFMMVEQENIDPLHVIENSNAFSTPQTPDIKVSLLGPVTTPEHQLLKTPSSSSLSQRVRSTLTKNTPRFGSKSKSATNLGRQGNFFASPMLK

[4] = target: T3, Cytochrome P450 1A2 (Homo sapiens, UniProt P05177);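 also: PubChem cytochrome P450 panel assay, CYP1A2 panel member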
T3 sequence (P05177 whole entry): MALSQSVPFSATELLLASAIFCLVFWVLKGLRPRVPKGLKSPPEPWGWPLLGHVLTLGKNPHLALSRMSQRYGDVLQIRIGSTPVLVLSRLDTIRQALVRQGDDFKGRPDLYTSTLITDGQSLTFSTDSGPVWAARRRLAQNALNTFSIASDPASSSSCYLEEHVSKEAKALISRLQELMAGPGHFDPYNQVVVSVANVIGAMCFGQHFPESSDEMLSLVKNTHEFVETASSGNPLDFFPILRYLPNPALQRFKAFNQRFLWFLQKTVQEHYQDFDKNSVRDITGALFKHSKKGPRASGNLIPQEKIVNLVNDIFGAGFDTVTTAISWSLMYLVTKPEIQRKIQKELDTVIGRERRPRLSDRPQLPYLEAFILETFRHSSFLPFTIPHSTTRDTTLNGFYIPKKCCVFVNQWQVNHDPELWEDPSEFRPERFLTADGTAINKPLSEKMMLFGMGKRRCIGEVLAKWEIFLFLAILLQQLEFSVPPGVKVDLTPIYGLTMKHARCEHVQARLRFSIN

[5] = target: Cytochrome P450 2C9 (Homo sapiens, UniProt P11712)
[6] = tested on: Escherichia coli; test: microbe, parasite or virus in culture
[7] = Trypanosoma cruzi growth suppression in host cells – NIH3T3 host cells, beta-gal luminescence, confirmation (AID 2044); type: functional, cell-based;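 also: intracellular parasites grown in NIH/3T3 mouse fibroblasts as host cells; luminescent beta-galactosidase reporter signal from transgenic T. cruzi replicating inside host cells; inhibitors lower the luminescence signal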
[8] = NIH3T3 cell viability loss – ATP luminescence, mouse fibroblasts, counter-screen, dose response (AID 2010); type: functional, cell-based;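 also: cells exposed to compound for about 90 hours before reading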
[9] = target: T4, Bcl-2-related protein A1 (Mus musculus, UniProt Q07440); type: functional;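 also: confirmatory dose–response counterscreen on Bfl-1, used to check hits from a UBC13 polyubiquitin inhibitor campaign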
T4 sequence (Q07440 whole entry): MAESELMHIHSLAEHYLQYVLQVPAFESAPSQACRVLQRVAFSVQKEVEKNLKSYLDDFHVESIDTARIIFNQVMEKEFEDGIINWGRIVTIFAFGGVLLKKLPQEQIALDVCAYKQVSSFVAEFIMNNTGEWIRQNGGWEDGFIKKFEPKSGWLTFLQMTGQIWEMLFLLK

[10] = target: T5, Ubiquitin-conjugating enzyme E2 N (Homo sapiens, UniProt P61088); type: functional
T5 sequence (P61088 whole entry): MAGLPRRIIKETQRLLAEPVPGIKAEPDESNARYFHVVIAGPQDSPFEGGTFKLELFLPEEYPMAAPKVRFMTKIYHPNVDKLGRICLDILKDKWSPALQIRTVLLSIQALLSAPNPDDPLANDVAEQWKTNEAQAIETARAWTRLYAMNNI

[11] = target: T5, Ubiquitin-conjugating enzyme E2 N; type: functional; remark: listed apart in the source
[12] = target: T6, RNA-binding protein pos-1 (Caenorhabditis elegans, UniProt G5EF15); test: disruptors of C. elegans POS-1 RNA interaction – biochemical, fluorescence polarization, dose response (AID 1964);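 also: purified POS-1 fused to maltose binding protein made in E. coli; potency of compounds blocking POS-1 binding to fluorescent RNA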
T6 sequence (G5EF15 whole entry): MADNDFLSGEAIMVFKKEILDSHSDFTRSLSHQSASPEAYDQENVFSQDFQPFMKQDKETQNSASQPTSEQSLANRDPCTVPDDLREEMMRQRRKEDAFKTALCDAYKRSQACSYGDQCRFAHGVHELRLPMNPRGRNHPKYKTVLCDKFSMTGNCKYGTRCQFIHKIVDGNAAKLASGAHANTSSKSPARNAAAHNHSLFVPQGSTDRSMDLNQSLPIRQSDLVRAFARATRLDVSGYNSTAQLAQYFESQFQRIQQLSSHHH

[13] = target: T7, Zinc finger protein mex-5 (Caenorhabditis elegans, UniProt Q9XUB2); test: potency of MEX-5 RNA-binding blockers – biochemical, C. elegans, fluorescence polarization, dose response (AID 1960)
T7 sequence (Q9XUB2 whole entry): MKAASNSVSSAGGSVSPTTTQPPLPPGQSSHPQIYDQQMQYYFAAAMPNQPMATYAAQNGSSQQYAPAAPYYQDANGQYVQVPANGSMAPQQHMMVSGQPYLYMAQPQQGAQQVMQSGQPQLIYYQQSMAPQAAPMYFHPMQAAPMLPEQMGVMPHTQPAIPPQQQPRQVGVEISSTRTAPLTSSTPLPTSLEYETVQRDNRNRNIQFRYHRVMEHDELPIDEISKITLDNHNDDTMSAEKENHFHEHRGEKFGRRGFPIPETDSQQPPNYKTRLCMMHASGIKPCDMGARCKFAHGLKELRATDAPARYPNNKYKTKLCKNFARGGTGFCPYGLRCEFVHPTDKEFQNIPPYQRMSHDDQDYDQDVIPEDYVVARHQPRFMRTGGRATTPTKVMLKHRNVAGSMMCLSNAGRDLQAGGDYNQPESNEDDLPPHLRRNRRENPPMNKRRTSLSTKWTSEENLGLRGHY

[14] = bead-based luminescence quenchers, dual-tagged ARNT – biochemical, AlphaScreen, cherry-pick, artefact control for ARNT-TACC3 interaction inhibitor project, dose response (AID 651705); type: functional;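 also: AlphaScreen bead proximity signal that flags compounds interfering with the detection technology; potency reflects signal decrease which marks the compound as an assay artifact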
[15] = target: T8, Hepatocyte nuclear factor 4-alpha (Homo sapiens, UniProt P41235); type: functional, cell-based;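 also: biochemical luminescence-based dose-response counterscreen measuring inhibition of HNF4 dimerization, run alongside a screen for blockers of ABHD5–perilipin-5 interaction; split luciferase complementation of HNF4 fusion proteins in cell lysate measuring dimerization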
T8 sequence (P41235 whole entry): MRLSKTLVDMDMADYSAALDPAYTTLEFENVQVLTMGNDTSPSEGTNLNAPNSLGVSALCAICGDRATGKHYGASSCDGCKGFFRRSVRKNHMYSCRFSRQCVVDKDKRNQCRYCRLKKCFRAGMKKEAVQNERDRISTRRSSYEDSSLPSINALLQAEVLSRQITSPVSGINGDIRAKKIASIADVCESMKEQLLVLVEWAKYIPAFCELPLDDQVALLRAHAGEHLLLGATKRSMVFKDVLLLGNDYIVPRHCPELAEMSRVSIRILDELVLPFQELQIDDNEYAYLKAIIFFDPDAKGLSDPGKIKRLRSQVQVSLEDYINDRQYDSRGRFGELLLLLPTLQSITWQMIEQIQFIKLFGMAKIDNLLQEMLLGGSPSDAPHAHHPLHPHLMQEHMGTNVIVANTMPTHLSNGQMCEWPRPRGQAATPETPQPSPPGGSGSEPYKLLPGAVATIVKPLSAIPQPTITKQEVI

[16] = target: Ras and Rab interactor 1/Tyrosine-protein kinase ABL1 (Homo sapiens, UniProt P00519+Q13671); type: functional;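 also: biochemical TR-FRET dose-response test measuring inhibition of binding between Rin1 and Abl proteins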
[17] = viability of uninfected HEp-2 cells – cell-based, HTS, cytotoxicity control for RSV inhibitor project, dose response (AID 2410); type: functional; conditions: human respiratory syncytial virus
[18] = target: 26S proteasome non-ATPase regulatory subunit 14 (Homo sapiens, UniProt O00487); test: inhibition of proteasome subunit RPN11 – biochemical, fluorescence polarization, uHTS hits, confirmation (AID 602368); type: functional
[19] = target: 72 kDa type IV collagenase (Homo sapiens, UniProt P08253); test: Dose Response validation of uHTS RPN11 inhibitor hits using a MMP-2 Fluorescence assay.; type: functional
[20] = target: Prothrombin (Bos taurus, UniProt P00735); test: thrombin protease inhibitors – biochemical, fluorescence polarization, uHTS hits, dose response (AID 602369); type: functional

Sequence of 72 kDa type IV collagenase (P08253 whole entry): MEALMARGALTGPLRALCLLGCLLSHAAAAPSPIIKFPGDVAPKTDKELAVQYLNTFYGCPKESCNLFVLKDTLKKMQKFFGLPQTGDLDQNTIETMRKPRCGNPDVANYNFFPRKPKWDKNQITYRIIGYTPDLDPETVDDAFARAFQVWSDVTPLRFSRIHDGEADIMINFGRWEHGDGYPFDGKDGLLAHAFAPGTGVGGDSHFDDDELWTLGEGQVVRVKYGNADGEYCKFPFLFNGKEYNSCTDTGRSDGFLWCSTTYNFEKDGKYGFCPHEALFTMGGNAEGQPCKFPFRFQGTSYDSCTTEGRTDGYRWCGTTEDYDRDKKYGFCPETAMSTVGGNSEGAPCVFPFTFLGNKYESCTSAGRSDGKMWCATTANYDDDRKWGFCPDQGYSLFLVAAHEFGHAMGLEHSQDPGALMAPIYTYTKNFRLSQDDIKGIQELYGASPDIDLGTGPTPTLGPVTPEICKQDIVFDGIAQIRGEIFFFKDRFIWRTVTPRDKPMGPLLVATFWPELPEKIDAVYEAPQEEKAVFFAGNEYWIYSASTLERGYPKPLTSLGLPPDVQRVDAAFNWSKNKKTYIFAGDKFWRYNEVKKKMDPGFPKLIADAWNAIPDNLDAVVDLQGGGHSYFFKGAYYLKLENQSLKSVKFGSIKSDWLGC
Sequence of 26S proteasome non-ATPase regulatory subunit 14 (O00487 whole entry): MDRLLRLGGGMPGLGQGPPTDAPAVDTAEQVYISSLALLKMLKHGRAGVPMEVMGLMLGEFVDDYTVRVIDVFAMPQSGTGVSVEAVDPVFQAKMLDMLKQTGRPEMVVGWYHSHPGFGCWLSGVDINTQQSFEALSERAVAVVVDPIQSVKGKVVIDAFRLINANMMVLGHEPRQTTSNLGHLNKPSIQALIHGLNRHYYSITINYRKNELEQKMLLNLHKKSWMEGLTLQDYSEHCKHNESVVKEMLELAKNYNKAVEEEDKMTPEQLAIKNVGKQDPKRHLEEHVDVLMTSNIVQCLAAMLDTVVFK
Sequence of Ras and Rab interactor 1/Tyrosine-protein kinase ABL1 (P00519 whole entry): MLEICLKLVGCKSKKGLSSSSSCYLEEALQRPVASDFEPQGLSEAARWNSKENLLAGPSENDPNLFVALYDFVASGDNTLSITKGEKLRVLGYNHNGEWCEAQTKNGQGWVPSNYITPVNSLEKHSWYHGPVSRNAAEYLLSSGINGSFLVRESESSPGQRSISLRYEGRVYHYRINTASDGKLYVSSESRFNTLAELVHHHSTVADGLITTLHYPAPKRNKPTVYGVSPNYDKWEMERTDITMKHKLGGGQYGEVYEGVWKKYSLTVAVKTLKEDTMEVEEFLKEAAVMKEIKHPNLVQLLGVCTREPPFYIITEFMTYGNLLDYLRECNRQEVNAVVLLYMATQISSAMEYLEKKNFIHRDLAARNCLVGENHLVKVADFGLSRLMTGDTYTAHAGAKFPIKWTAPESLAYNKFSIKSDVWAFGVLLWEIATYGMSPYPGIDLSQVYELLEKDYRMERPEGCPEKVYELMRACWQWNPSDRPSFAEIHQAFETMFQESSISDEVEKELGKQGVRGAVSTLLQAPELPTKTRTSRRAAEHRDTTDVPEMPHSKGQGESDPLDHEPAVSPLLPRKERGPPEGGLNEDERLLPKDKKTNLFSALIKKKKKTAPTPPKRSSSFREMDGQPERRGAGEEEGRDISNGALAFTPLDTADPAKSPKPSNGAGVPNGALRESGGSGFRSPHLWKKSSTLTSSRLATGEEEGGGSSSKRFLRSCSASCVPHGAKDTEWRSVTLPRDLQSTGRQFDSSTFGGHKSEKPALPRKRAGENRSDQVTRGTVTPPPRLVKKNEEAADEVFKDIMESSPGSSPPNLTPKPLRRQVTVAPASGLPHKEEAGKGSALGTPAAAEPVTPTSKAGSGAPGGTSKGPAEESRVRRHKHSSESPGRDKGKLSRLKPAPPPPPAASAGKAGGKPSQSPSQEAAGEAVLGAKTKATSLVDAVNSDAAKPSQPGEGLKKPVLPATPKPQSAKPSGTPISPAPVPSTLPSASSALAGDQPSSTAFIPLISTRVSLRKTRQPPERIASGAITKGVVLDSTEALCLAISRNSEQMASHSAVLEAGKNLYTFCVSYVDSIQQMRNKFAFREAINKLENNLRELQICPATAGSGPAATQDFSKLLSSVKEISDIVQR
Sequence of Ras and Rab interactor 1/Tyrosine-protein kinase ABL1 (Q13671 whole entry): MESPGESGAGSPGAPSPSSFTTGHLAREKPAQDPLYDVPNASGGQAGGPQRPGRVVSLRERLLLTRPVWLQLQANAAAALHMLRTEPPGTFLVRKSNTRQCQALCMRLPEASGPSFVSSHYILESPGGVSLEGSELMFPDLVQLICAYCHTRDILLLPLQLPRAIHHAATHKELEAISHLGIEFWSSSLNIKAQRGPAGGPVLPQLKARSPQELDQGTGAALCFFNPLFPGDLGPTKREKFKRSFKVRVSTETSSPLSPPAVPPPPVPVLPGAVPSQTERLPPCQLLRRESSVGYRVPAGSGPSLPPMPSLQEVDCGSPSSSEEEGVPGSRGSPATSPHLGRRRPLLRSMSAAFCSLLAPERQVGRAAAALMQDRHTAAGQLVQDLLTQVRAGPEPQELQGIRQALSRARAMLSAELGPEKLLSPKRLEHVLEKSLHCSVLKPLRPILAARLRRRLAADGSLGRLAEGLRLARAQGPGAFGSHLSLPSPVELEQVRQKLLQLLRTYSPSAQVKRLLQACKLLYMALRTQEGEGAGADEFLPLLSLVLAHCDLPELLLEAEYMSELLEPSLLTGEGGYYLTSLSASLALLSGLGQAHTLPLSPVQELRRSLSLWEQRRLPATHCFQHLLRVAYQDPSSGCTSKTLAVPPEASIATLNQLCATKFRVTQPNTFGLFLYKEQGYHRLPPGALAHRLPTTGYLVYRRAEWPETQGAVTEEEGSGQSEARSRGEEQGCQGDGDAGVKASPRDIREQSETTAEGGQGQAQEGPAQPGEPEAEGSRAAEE
Sequence of Cytochrome P450 2C9 (P11712 whole entry): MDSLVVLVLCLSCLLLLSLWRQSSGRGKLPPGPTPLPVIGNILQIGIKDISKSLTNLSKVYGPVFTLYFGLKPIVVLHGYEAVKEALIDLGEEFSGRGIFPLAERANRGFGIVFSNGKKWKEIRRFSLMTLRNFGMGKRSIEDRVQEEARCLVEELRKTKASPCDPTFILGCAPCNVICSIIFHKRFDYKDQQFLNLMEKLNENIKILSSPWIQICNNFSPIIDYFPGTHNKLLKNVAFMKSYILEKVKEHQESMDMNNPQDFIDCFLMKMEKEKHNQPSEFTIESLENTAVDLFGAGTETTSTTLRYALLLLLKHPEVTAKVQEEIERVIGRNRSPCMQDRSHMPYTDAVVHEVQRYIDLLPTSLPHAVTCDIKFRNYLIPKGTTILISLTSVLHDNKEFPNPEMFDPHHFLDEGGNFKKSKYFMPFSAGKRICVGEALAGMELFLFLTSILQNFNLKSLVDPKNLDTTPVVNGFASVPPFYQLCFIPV

COc1cccc(CN2CCN(Cc3cc(OC)c(OC)cc3[N+](=O)[O-])CC2)c1.O=C(O)C(=O)O
IC50 [1]: > 47.1 µM (inactive) | EC50 [2]: > 53 µM (inactive) | IC50 [3]: 56.8 µM (active) | AC50 [4]: 14.1 µM (inconclusive) | AC50 [5]: inconclusive | AC50 [6]: > 150 µM (inactive)

Cc1cc(C)c2sc(N(CCCN(C)C)C(=O)c3ccc(S(=O)(=O)N(C)C4CCCCC4)cc3)nc2c1
EC50 [7]: 385 nM (active) | EC50 [8]: > 30 µM (not active) | IC50 [9]: > 20 µM (inactive) | IC50 [10]: 10.6 µM (active) | IC50 [11]: 10 µM (active)

C#CCOCCOCCOCCNc1nc(N2CCN(C(=O)[C@H](CCCCN)n3cc(CN)nn3)CC2)nc(N2CCN(C(=O)[C@H](CCCCN)n3cc(CN)nn3)CC2)n1
IC50 [9]: > 20 µM (inactive) | IC50 [10]: 5.36 µM (active) | IC50 [11]: 5.15 µM (active) | IC50 [3]: 203 µM (active)

O=C(NNc1ccccn1)C(=O)NNS(=O)(=O)c1ccc(F)cc1
EC50 [12]: > 300 µM (not active) | EC50 [13]: > 300 µM (inconclusive) | AC50 [14]: 122 µM (active)

O=C(N[C@@H]1CC[C@@H](CCn2cc(-c3ccccn3)nn2)O[C@H]1CO)c1ccncc1
AC50 [14]: 72.8 µM (active)

Cc1cccc(C)c1NC(=O)C(c1ccc(C(F)(F)F)cc1)n1c(=O)c(-c2ccco2)nc2ccccc21 (stereo unspecified)
IC50 [15]: 2.56 µM (active)

Oc1nc2ccccc2n1C1CCN(C(c2nnnn2-c2ccc3c(c2)OCCO3)C2CC2)CC1 (stereo unspecified)
IC50 [16]: 40.9 µM (inactive)

COc1ccc(OCc2cn(CC(=O)c3ccc(O)cc3)nn2)cc1
IC50 [15]: 6 µM (active)

Cc1nc(Nc2cccc(O)c2)c2c3c(sc2n1)CCC3
CC50 [17]: 12.7 µM (active) | IC50 [16]: > 73.5 µM (inactive)

OC1(c2ccccc2Cl)NN=C2CCCCCN21 (stereo unspecified)
AC50 [6]: 26 µM (active)

O=S(=O)(N[C@@H]1CC[C@H](CCn2cc(-c3ccccn3)nn2)O[C@@H]1CO)c1cccc(F)c1
AC50 [14]: 79.4 µM (active)

CCc1ccc(OCC(=O)NNC(=O)c2cc(S(=O)(=O)N(C)C)ccc2N2CCCC2)cc1
IC50 [18]: 47 µM (active) | IC50 [19]: 23.6 µM (active) | IC50 [20]: > 100 µM (inactive)

CN(C)c1nc(SCC#N)nc(N2CCOCC2)n1
AC50 [6]: 66.1 µM (active)

Cc1nc2ccccc2n1C1CCN(CC(=O)Nc2ccccc2Br)CC1 [ASN06356088]
IC50 [9]: > 20 µM (inactive) | IC50 [10]: 16.4 µM (active) | IC50 [11]: > 20 µM (inactive)

C=Cc1ccc(Cn2c(C(=O)O)c(C=O)c3ccccc32)cc1
IC50 [18]: 12.6 µM (active) | IC50 [19]: > 100 µM (inactive) | IC50 [20]: 39.1 µM (active)

From ChEMBL document CHEMBL1201862, “PubChem BioAssay data set” (2004)
